Values after ≈ are worked out from the molar mass of the structure shown.
What was measured:
[1] = test system: insulated cavy trachea (ICT); settings: ICT contracted with hystamine (1 μM), cited from earlier work; for Emax, tension: relaxation
[2] = test system: uterus colon carcinoma (line L5-26); settings: L5-26 colon cells; cited from earlier work
[3] = test system: H. pylori NTCT 11916; settings: strain NTCT 11916; cited from earlier work
[4] = test system: fibrosarcoma (line HT-1080); settings: HT1080 fibrosarcoma cells; cited from earlier work
[5] = test system: H. pylori ATCC 43504; settings: strain ATCC 43504; cited from earlier work
[6] = test system: H. pylori NTCT 11637; settings: strain NTCT 11637; cited from earlier work
[7] = Hepatocytes; read-out: Hepatoprotection Effect IC50 μM (Hepatocytes); cited from earlier work
[8] = cited from earlier work
[9] = test system: Staphylococcus aureus; experiment: Antibacterial activity, inhibition halos in culture; assay type: cell-based; settings: for Antibacterial activty, inhibition halo: Staphylococcus aureus culture
Text: (§1) The insulated compounds DCBEN, DHCA, E and mixture of E+DPB have their antibacterial properties tested in cultures of E.coli, Pseudomonas aeruginosa, Staphylococcus aureus and Streptococcus faecalis. Inhibition halos (in mm) and the obtained data recorded as in FIG. 1.
(§2) Antibacterial activity of the compounds K, G1, G2 e L2 has been evaluated in cultures of E.coli, Pseudomonas aeruginosa, Staphylococcus aureus and Streptococcus faecalis. Inhibition halos have been measured (mm) and the data recorded as in FIG. 1. S.aureus, S.faecalis e E.coli, are sensitive to the tested compounds, just varying the halos, the compound G2 has the most toxity in cultures of S.aureus e S.faecalis. None of the tested compounds had effect in P.aeruginosa.

[10] = test system: Escherichia coli; experiment: as above; assay type: cell-based; settings: Escherichia coli culture
Text: as §1, §2

[11] = test system: Streptococcus faecalis; experiment: as above; assay type: cell-based; settings: for Antibacterial activty, inhibition halo: Streptococcus faecalis culture
Text: as §1, §2

[12] = test system: Pseudomonas aeruginosa; experiment: as above; assay type: cell-based
Text: as §1, §2

[13] = test system: T. cruzi trypomastigotes; experiment: Effects against T. cruzi trypomastigotes cultures; assay type: cell-based, Trypanosoma cruzi
Description: FIG. 2 are recorded ID50 data related to trypomastigotes cultures (one of the growing stages of Trypanosoma cruzi (T.cruzi)) also to the compounds DCBEN, DHCA, E and mixture E+DPB and the effects of said compounds extracted from propolis trypomastigotes of T.cruzi (in mg/mL). […] The same result for Violet Crystal is 0.205 mg/mL, as previously mentioned. The results for insulated compounds are greater than the Violet Crystal.

[14] = insulated labdan acids; cited from earlier work

Row | Compound | Antitumor activity (LD50 μg/mL) L5-26 (Colon) [2] [µg/mL] | MIC (H. pylori mg/mL) NTCT 11916 [3] [mg/mL] | Antitumor activity (LD50 μg/mL) HT1080 (Fibrosarcoma) [4] [µg/mL] | MIC (H. pylori mg/mL) ATCC 43504 [5] [mg/mL] | MIC (H. pylori mg/mL) NTCT 11637 [6] [mg/mL] | IC50 [7] [µM] | also measured
1 | 2-[1-hydroxymethyl]vinyl-6-acetyl-5-hydroxy-coumaran |  |  |  |  |  |  | Emax, tension [1]: 1.06 ± 0.09 g
2 | CC(C)=CCc1cc(/C=C/C(=O)O)cc2c1OC(C)(C)C(O)C2 (stereo not drawn) [Compound 1] | 77.07 | 0.25 (≈ 0.79 mM) | 71.53 | 0.25 (≈ 0.79 mM) | 0.13 (≈ 0.411 mM) |  | 
3 | CC(C)=CCc1cc(/C=C/C(=O)O)cc2c1OC(C)(C)C=C2 [Compound 2] | 50.22 | 0.50 (≈ 1.68 mM) | 46.86 | 1.00 (≈ 3.35 mM) | 0.50 (≈ 1.68 mM) | 88.1 | 
4 | CC1(C)C=Cc2cc(/C=C/C(=O)O)ccc2O1 [Compound 3] | >100 | >1 | >100 | >1 | >1 |  | 
5 | CC1(C)C=Cc2cc(C(=O)O)ccc2O1 [Compound 4] | >100 |  | >100 |  |  |  | 
6 | CC(C)=CCc1cc(/C=C/C(=O)O)cc(CC=C(C)C)c1O [Compound 5] | 59.32 | >1 | 45.47 | >1 | >1 |  | Antioxidant Activity (DPPH) [8]: 5.6 µg/mL
7 | CC(C)=CCc1cc(/C=C/C(=O)O)ccc1OC(=O)CCc1ccccc1 [Compound 6] | 77.90 | 0.50 (≈ 1.37 mM) | 25.94 | 0.50 (≈ 1.37 mM) | 0.25 (≈ 0.686 mM) | 26.9 | 
8 | CC(C)=CCc1cc(/C=C/C(=O)O)ccc1O [Compound 7] | >100 | >1 | >100 | >1 | >1 | 34.6 | 
9 | COc1cc(/C=C/C=O)ccc1O [Compound 9] | 10.44 | >1 | 4.05 | >1 | >1 | 45.8 | Antioxidant Activity (DPPH) [8]: 11.1 µg/mL
10 | C=C(C)[C@H]1Cc2cc(C(C)=O)ccc2O1 [Compound 16] | 58.09 |  | 57.40 |  |  |  | 
11 | C=C(CO)[C@H]1Cc2cc(O)c(C(C)=O)cc2O1 [Compound 17] | 57.15 | >1 | 45.48 | >1 | >1 |  | 
12 | C=C(COC(C)=O)[C@H]1Cc2cc(O)c(C(C)=O)cc2O1 [Compound 18] | >100 | 1.0 (≈ 3.62 mM) | >100 | 1.0 (≈ 3.62 mM) | 1.0 (≈ 3.62 mM) |  | 
13 | COc1ccc(-c2oc3cc(O)cc(O)c3c(=O)c2O)cc1 [Compound 22] | 70.98 | 1.0 (≈ 3.33 mM) | 26.97 | >1 | 1.0 (≈ 3.33 mM) | 22 | 
14 | CC(C)=CCc1cc(/C=C/C(=O)O)cc(C/C=C(\C)COC(=O)CCc2ccccc2)c1O [Compound 24] | >100 | 0.25 (≈ 0.557 mM) | >100 | 0.25 (≈ 0.557 mM) | 0.13 (≈ 0.29 mM) | 15.2 | Antioxidant Activity (DPPH) [8]: 12.2 µg/mL
15 | C=C(C)C1Cc2cc(/C=C/C(=O)O)cc(CC=C(C)C)c2O1 (stereo not drawn) [Compound 25] | >100 | 0.13 (≈ 0.436 mM) | >100 | 0.13 (≈ 0.436 mM) | 0.25 (≈ 0.838 mM) |  | Antioxidant Activity (DPPH) [8]: 15.0 µg/mL
16 | COc1cc([C@@H]2OC=C(c3cc4cc(O)c(C(C)=O)cc4o3)C[C@H]2COC(C)=O)ccc1O [Compound 26] | 12.4 | >1 | 13.9 | >1 | >1 | 63.5 | Antioxidant Activity (DPPH) [8]: 29.1 µg/mL
17 | COc1cc([C@@H]2c3c(oc4cc(C(C)=O)c(O)cc34)C(=O)C[C@H]2COC(C)=O)ccc1O [Compound 27] | 13.7 | >1 | 43.2 | >1 | >1 | 15 | Antioxidant Activity (DPPH) [8]: 30.1 µg/mL
18 | COc1cc(C=O)ccc1O [Compound G1] |  |  |  |  |  |  | Antibacterial activty, inhibition halo [9]: + (+ halo < or = to 8 mm); Antibacterial activty, inhibition halo [10]: + (+ halo < or = to 8 mm); Antibacterial activty, inhibition halo [11]: + (+ halo < or = to 8 mm); Antibacterial activty, inhibition halo [12]: Ø
19 | COc1cc(C=CC=O)ccc1O [Compound G2, 3-methoxy-4-hydroxycinnamaldehyde] |  |  |  |  |  |  | Antibacterial effect in words ([9]; S.aureus culture): most toxity; Antibacterial activty, inhibition halo [9]: ++ (++ halo > or = to 8 mm and < 12 mm); Antibacterial activty, inhibition halo [10]: + (+ halo < or = to 8 mm); Antibacterial effect in words ([11]; S.faecalis culture): most toxity; Antibacterial activty, inhibition halo [11]: ++ (++ halo > or = to 8 mm and < 12 mm); Antibacterial activty, inhibition halo [12]: Ø
20 | CN(C)c1ccc(C(=C2C=CC(=[N+](C)C)C=C2)c2ccc(N(C)C)cc2)cc1.[Cl-] [Cristal violet, reference compound] |  |  |  |  |  |  | ID50/24 h [13]: 205 µg/mL
21 | CC1(C)C=Cc2cc(C=CC(=O)O)ccc2O1 [DCBEN, 2,2-Dimethyl-6-carboxiethenyl-2H-1-benzopyran] |  |  |  |  |  |  | EC50 ([1]; read-out: CE50 (the source's name)): 0.25 µM; Emax, tension [1]: 0.80 ± 0.05 g; ID50/24 h [13]: 1696 ± 32 µg/mL (≈ 7.37 mM); Antibacterial activty, inhibition halo [9]: ++ (++ halo > or = to 8 mm and < 12 mm); Antibacterial activty, inhibition halo [10]: + (+ halo < or = to 8 mm); Antibacterial activty, inhibition halo [11]: ++ (++ halo > or = to 8 mm and < 12 mm); Antibacterial activty, inhibition halo [12]: Ø
22 | CC(C)=CCc1cc(C=CC(=O)O)cc2c1OC(C)(C)C=C2 [E] |  |  |  |  |  |  | Antibacterial activty, inhibition halo [9]: + (+ halo < or = to 8 mm); Antibacterial activty, inhibition halo [10]: + (+ halo < or = to 8 mm); Antibacterial activty, inhibition halo [11]: + (+ halo < or = to 8 mm); Antibacterial activty, inhibition halo [12]: Ø
23 | CC(C)=CCc1cc(C=CC(=O)O)ccc1O [PHCA, 3-prenyl-4-hydroxycinnamic acid] |  |  |  |  |  |  | Emax, tension [1]: 1.258 ± 84 g
24 | C=C1CC[C@@H]2[C@](C)(CCC[C@]2(C)C(=O)O)[C@H]1CC/C(C)=C/CO [[b], isocupressic acid] |  |  |  |  |  |  | Antibacterial activity by bioautography [14]: most active
25 | C=C1CC[C@@H]2[C@](C)(CCC[C@]2(C)C(=O)O)[C@H]1CC[C@H](C)CCO [[d], imbricatoloic acid] |  |  |  |  |  |  | Antibacterial activity by bioautography [14]: most active

Reference: US20040126437A1, “Typing natural products” (priority 2000, published 2004)
